Patent US20210332005A1, “CH-ACIDIC M[…] FOR THE PREPARATION OF AQUEOUS POLYMER DISPERSIONS” (EVONIK OPERATIONS GMBH, priority 2018, published 2021)

Assay: Solubility of the product in water (stirred with water, aqueous phase analysed by HPLC)
Format: physicochemical
Conditions: for content of the product in the aqueous phase (solubility in water): HPLC; for water-solubility, overall rating in words: summary statement
Protocol: The solubility of the product in water was determined as follows:
The product was stirred with water for three days at room temperature and the composition of the aqueous phase obtained in this way was determined using HPLC. The aqueous phase contained 6.7 wt % of the product.
A further sample of the product was stirred with water for three hours at 80° C. and cooled back to room temperature. The composition of the aqueous phase obtained in this way was subsequently determined using HPLC. The aqueous phase contained more than 10 wt % of the product.
The product was stirred with water for two days at room temperature and the composition of the aqueous phase obtained in this way was determined using HPLC. The aqueous phase contained 6.2 wt % of the product.
A further sample of the product was stirred with water for one hour at 60° C. and cooled back to room temperature. The composition of the aqueous phase obtained in this way was subsequently determined using HPLC. The aqueous phase contained 8.1 wt % of the product.
The product was stirred with water for three days at room temperature and the composition of the aqueous phase obtained in this way was determined using HPLC.
A further sample of the product was stirred with water for three hours at 80° C. and cooled to room temperature. The composition of the aqueous phase obtained in this way was subsequently determined using HPLC.

[1] = stirred with water for three days at room temperature
[2] = stirred with water for three hours at 80° C. and cooled back to room temperature

Row | SMILES | content of the product in the aqueous phase (solubility in water) (stirred with water for one hour at 60° C. and cooled back to room temperature) [wt %] | content of the product in the aqueous phase (solubility in water) (stirred with water for two days at room temperature) [wt %] | water-solubility, overall rating in words | content of the product in the aqueous phase (solubility in water) [1] | content of the product in the aqueous phase (solubility in water) [2]
1 | C=C(C)C(=O)NCCCCNC(=O)CC#N [Example 5, N-(2-cyanoethylamidobutyl)methacrylamide] | 8.1 | 6.2 | high water-solubility | – | –
2 | C=C(C)C(=O)NCCNC(=O)CC#N [Example 3, N-(2-cyanoethylamidoethyl)methacrylamide] | – | – | high water-solubility | 6.7 wt % | more than 10 wt %
3 | C=C(C)C(=O)NCCCCCCNC(=O)CC#N [Comparative Example 3, N-(2-cyanoethylamidohexyl)methacrylamide, reference compound] | – | – | very low water-solubility | virtually insoluble in water | virtually insoluble in water
